Test system: polymorphonuclear neutrophils (PMNs)
Assay: GRO-α driven chemotaxis assay with PMNs (ChemoTx plate)
Type: cell-based
Conditions: 20 μM compound; 50 nM GRO-α, human PMNs
Description: Peripheral blood from healthy human volunteers was collected into heparin, diluted in an equal volume of PBS, layered over Ficoll-Paque Plus (Pharmacia Biotech, Uppsala, Sweden), and spun at 400×g for 30 min. The PMN rich fraction was removed and residual erythrocytes were lysed with hypotonic saline. The polymorphonuclear neutrophils (PMNs) were washed once with assay buffer (Dulbecco's PBS containing divalent cations and 0.1% endotoxin-free BSA), and resuspended at 1E7 cells/mL in the same buffer. PMNs were loaded with 5 μM calcein AM (Molecular Probes, Eugene, Oreg.), washed twice and resuspended in assay buffer.
Growth Regulatory Oncogene a (GRO-α) driven chemotaxis assays were performed according to the following protocol. […] Test compounds were dissolved in DMSO (100%) at 20 mM and diluted in assay buffer to the desired concentrations; final DMSO concentration was 0.2%. Neutrophil migration proceeded for 40 min at 37° C. in a humidified incubator with 5% CO2. After removing nonmigrated cells from the top of the plate, migrated cells were quantified by reading fluorescence on a Wallac Victor.
The ratio of the positive to negative controls represents the chemotactic index of the cells. The results from this assay are reported in Tables 3–5, under the column headings IL-8 and GRO-α, and under the sub-column headings ChTx (for chemotaxis).

Row | Compound | GRO-α ChTx @ 20 μM, %
1 | O=C(Nc1ccc(F)cc1)c1ccc(NCc2ccccc2)[n+]([O-])c1 | * (“*” for % values of less than or equal to 40)
2 | O=C(Nc1ccc(F)cc1)c1ccc(Nc2ccccc2)[n+]([O-])c1 | * (“*” for % values of less than or equal to 40)
3 | CNc1ccc(C(=O)Nc2ccc(F)cc2)c[n+]1[O-] | ** (“**” for % values greater than 40)
4 | O=C(Nc1ccc(F)cc1)c1ccc(-n2ccnc2)[n+]([O-])c1 | * (“*” for % values of less than or equal to 40)
5 | O=C(Nc1ccc(F)cc1)c1ccc(NCCO)[n+]([O-])c1 | ** (“**” for % values greater than 40)
6 | CCCCCNc1ccc(C(=O)Nc2ccc(F)cc2)c[n+]1[O-] | ** (“**” for % values greater than 40)
7 | O=C(Nc1ccc(F)cc1)c1ccc(N2CCCC2)[n+]([O-])c1 | * (“*” for % values of less than or equal to 40)
8 | Nc1ccc(C(=O)Nc2ccc(F)cc2)c[n+]1[O-] | * (“*” for % values of less than or equal to 40)
9 | COc1ccc(C(=O)Nc2ccc(F)cc2)c[n+]1[O-] | ** (“**” for % values greater than 40)
10 | CSc1ccc(C(=O)Nc2ccc(F)cc2)c[n+]1[O-] | ** (“**” for % values greater than 40)
11 | CCSc1ccc(C(=O)Nc2ccc(F)cc2)c[n+]1[O-] | * (“*” for % values of less than or equal to 40)
12 | CC(C)S(=O)(=O)c1ccc(C(=O)Nc2ccc(F)cc2)c[n+]1[O-] | ** (“**” for % values greater than 40)
13 | O=C(O)c1cccc(S(=O)(=O)c2ccc(C(=O)Nc3ccc(F)cc3)c[n+]2[O-])c1 | * (“*” for % values of less than or equal to 40)
14 | O=C(O)CCS(=O)(=O)c1ccc(C(=O)Nc2ccc(F)cc2)c[n+]1[O-] | * (“*” for % values of less than or equal to 40)
15 | O=C(Nc1ccc(F)cc1)c1ccc(S(=O)(=O)c2ccc(F)cc2)[n+]([O-])c1 | ** (“**” for % values greater than 40)
16 | Cc1cccc(S(=O)(=O)c2ccc(C(=O)Nc3ccc(F)cc3)c[n+]2[O-])c1 | ** (“**” for % values greater than 40)
17 | Cc1ccc(C(=O)Nc2ccc(F)cc2)c[n+]1[O-] | * (“*” for % values of less than or equal to 40)
18 | O=C(Nc1cccc(Br)c1)c1ccc(Cl)[n+]([O-])c1 | ** (“**” for % values greater than 40)
19 | O=C(Nc1ccc(F)c(C(F)(F)F)c1)c1ccc(Cl)[n+]([O-])c1 | ** (“**” for % values greater than 40)
20 | O=C(Nc1cccc(I)c1)c1ccc(Cl)[n+]([O-])c1 | ** (“**” for % values greater than 40)
21 | O=C(Nc1ccc(OC(F)(F)F)cc1)c1ccc(Cl)[n+]([O-])c1 | * (“*” for % values of less than or equal to 40)
22 | O=C(Nc1ccc(OCc2ccccc2)cc1)c1ccc(Cl)[n+]([O-])c1 | ** (“**” for % values greater than 40)
23 | O=C(Nc1ccc(I)c(Cl)c1)c1ccc(Cl)[n+]([O-])c1 | ** (“**” for % values greater than 40)

Row | Compound | GRO-α ChTx @ 20 μM, %
24 | Cc1cc(NC(=O)c2ccc(Cl)[n+]([O-])c2)ccc1Br | ** (“**” for % values greater than 40)
25 | O=C(Nc1cc(C(F)(F)F)cc(C(F)(F)F)c1)c1ccc(Cl)[n+]([O-])c1 | * (“*” for % values of less than or equal to 40)
26 | O=C(Nc1cccc(OC(F)(F)F)c1)c1ccc(Cl)[n+]([O-])c1 | * (“*” for % values of less than or equal to 40)
27 | Cc1cc(F)ccc1NC(=O)c1ccc(Cl)[n+]([O-])c1 | ** (“**” for % values greater than 40)
28 | O=C(Nc1cccc(F)c1)c1ccc(Cl)[n+]([O-])c1 | ** (“**” for % values greater than 40)
29 | CC(C)(C)OC(=O)c1cccc(NC(=O)c2ccc(Cl)[n+]([O-])c2)c1 | ** (“**” for % values greater than 40)
30 | O=C(O)c1cccc(NC(=O)c2ccc(Cl)[n+]([O-])c2)c1 | * (“*” for % values of less than or equal to 40)
31 | COc1ccc(C(=O)O)cc1NC(=O)c1ccc(Cl)[n+]([O-])c1 | ** (“**” for % values greater than 40)
32 | O=C(Nc1cc(F)c(F)c(C(=O)O)c1F)c1ccc(Cl)[n+]([O-])c1 | * (“*” for % values of less than or equal to 40)
33 | O=C(Nc1ccc(O)c(C(=O)O)c1)c1ccc(Cl)[n+]([O-])c1 | * (“*” for % values of less than or equal to 40)
34 | O=C(Nc1ccc(F)c(F)c1C(=O)O)c1ccc(Cl)[n+]([O-])c1 | ** (“**” for % values greater than 40)
35 | CCCCc1ccc(NC(=O)c2ccc(Cl)[n+]([O-])c2)cc1 | ** (“**” for % values greater than 40)
36 | COC(=O)c1ccc(NC(=O)c2ccc(Cl)[n+]([O-])c2)cc1 | ** (“**” for % values greater than 40)
37 | O=C(Nc1cccc(F)c1F)c1ccc(Cl)[n+]([O-])c1 | ** (“**” for % values greater than 40)
38 | CSc1ccccc1NC(=O)c1ccc(Cl)[n+]([O-])c1 | ** (“**” for % values greater than 40)
39 | CSc1ccc(NC(=O)c2ccc(Cl)[n+]([O-])c2)cc1 | ** (“**” for % values greater than 40)
40 | N#Cc1cccc(NC(=O)c2ccc(Cl)[n+]([O-])c2)c1 | ** (“**” for % values greater than 40)
41 | COc1cc(NC(=O)c2ccc(Cl)[n+]([O-])c2)cc(OC)c1OC | * (“*” for % values of less than or equal to 40)
42 | O=C(Nc1ccc(F)cc1)c1ccc(Cl)[n+]([O-])c1Cl | ** (“**” for % values greater than 40)
43 | Cc1ccc(C(=O)Nc2ccc(F)cc2)c(Cl)[n+]1[O-] | * (“*” for % values of less than or equal to 40)
44 | O=C(Nc1ccc(F)cc1)c1ccc(Br)[n+]([O-])c1 [Br, 6-BROMO-N-(4-FLUORO-PHENYL)-1-OXY-NICOTINAMIDE] | ** (“**” for % values greater than 40)
45 | O=C(Nc1ccc(F)cc1)c1cc(Cl)c(Cl)[n+]([O-])c1 [drawing 126] | ** (“**” for % values greater than 40)

Molecular target: T1, IL-8 type β receptor (IL-8Rβ) (Homo sapiens, UniProt P25025)
T1 construct: purchased BioSignal, Montreal, Canada; host or cells: Sf9 cells
T1 sequence (P25025 1-360): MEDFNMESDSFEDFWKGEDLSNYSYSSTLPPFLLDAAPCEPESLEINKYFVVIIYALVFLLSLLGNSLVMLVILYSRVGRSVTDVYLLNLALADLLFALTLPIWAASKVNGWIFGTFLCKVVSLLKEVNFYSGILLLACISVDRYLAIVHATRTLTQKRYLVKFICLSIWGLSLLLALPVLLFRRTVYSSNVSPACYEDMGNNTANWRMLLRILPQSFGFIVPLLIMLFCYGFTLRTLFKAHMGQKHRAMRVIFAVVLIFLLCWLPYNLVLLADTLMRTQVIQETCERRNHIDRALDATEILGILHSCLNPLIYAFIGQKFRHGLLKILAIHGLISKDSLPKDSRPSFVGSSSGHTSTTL
Assay: [125I] IL-8 binding assay (WGA-SPA beads, IL-8Rβ membranes)
Conditions: 20 uM compound; [125I] IL-8, IL-8Rβ membranes
Description: IL-8 (human recombinant) was obtained from NEN Life Science Products, Inc., Boston, Mass., with specific activity of 2200 Ci/mmol. Recombinant human IL-8 was obtained from R&D Systems, Minneapolis, Minn. IL-8 type β receptor membranes were prepared from […] co-expressed with Gαi3β1γ2 proteins by BioSignal™, Montreal, Canada. Wheat Germ Agglutinin Scintillation Proximity Assay Beads were obtained from Amersham Pharmacia Biotech, Piscataway, N.J. All assays were performed in a 96-well, solvent resistant, white PicoPlate obtained from Packard Instruments. […] The assay was initiated by the addition of WGA-SPA beads in 25 mM Hepes (pH 7.4) containing 2 mM CaCl2 and 1 mM MgCl2. After 4–6 hours of gentle agitation at room temperature, the plate was counted on the Packard TopCount liquid scintillation counter.

Row | Compound | IL-8 Binding @ 20 uM, %
46 | CN(C)c1ccc(C(=O)Nc2ccc(F)cc2)c[n+]1[O-] | * (“*” for % values of less than or equal to 40)
47 | O=C(Nc1ccc(F)cc1)c1ccc(NCc2ccccc2)[n+]([O-])c1 | * (“*” for % values of less than or equal to 40)
48 | O=C(Nc1ccc(F)cc1)c1ccc(Nc2ccccc2)[n+]([O-])c1 | ** (“**” for % values greater than 40)
49 | CNc1ccc(C(=O)Nc2ccc(F)cc2)c[n+]1[O-] | ** (“**” for % values greater than 40)
50 | O=C(Nc1ccc(F)cc1)c1ccc(-n2ccnc2)[n+]([O-])c1 | * (“*” for % values of less than or equal to 40)
51 | O=C(Nc1ccc(F)cc1)c1ccc(NCCO)[n+]([O-])c1 | * (“*” for % values of less than or equal to 40)
52 | CCCCCNc1ccc(C(=O)Nc2ccc(F)cc2)c[n+]1[O-] | * (“*” for % values of less than or equal to 40)
53 | O=C(Nc1ccc(F)cc1)c1ccc(N2CCCC2)[n+]([O-])c1 | * (“*” for % values of less than or equal to 40)
54 | Nc1ccc(C(=O)Nc2ccc(F)cc2)c[n+]1[O-] | * (“*” for % values of less than or equal to 40)
55 | COc1ccc(C(=O)Nc2ccc(F)cc2)c[n+]1[O-] | * (“*” for % values of less than or equal to 40)
56 | CSc1ccc(C(=O)Nc2ccc(F)cc2)c[n+]1[O-] | ** (“**” for % values greater than 40)
57 | CCSc1ccc(C(=O)Nc2ccc(F)cc2)c[n+]1[O-] | * (“*” for % values of less than or equal to 40)
58 | CC(C)S(=O)(=O)c1ccc(C(=O)Nc2ccc(F)cc2)c[n+]1[O-] | ** (“**” for % values greater than 40)
59 | O=C(O)c1cccc(S(=O)(=O)c2ccc(C(=O)Nc3ccc(F)cc3)c[n+]2[O-])c1 | ** (“**” for % values greater than 40)
60 | O=C(O)CCS(=O)(=O)c1ccc(C(=O)Nc2ccc(F)cc2)c[n+]1[O-] | ** (“**” for % values greater than 40)
61 | O=C(Nc1ccc(F)cc1)c1ccc(S(=O)(=O)c2ccc(F)cc2)[n+]([O-])c1 | ** (“**” for % values greater than 40)
62 | Cc1cccc(S(=O)(=O)c2ccc(C(=O)Nc3ccc(F)cc3)c[n+]2[O-])c1 | * (“*” for % values of less than or equal to 40)
63 | Cc1ccc(C(=O)Nc2ccc(F)cc2)c[n+]1[O-] | *(2) (“*” for % values of less than or equal to 40)
64 | O=C(Nc1cccc(Br)c1)c1ccc(Cl)[n+]([O-])c1 | * (“*” for % values of less than or equal to 40)
65 | O=C(Nc1ccc(F)c(C(F)(F)F)c1)c1ccc(Cl)[n+]([O-])c1 | * (“*” for % values of less than or equal to 40)
66 | O=C(Nc1cccc(I)c1)c1ccc(Cl)[n+]([O-])c1 | * (“*” for % values of less than or equal to 40)
67 | O=C(Nc1ccc(OC(F)(F)F)cc1)c1ccc(Cl)[n+]([O-])c1 | * (“*” for % values of less than or equal to 40)
68 | O=C(Nc1ccc(OCc2ccccc2)cc1)c1ccc(Cl)[n+]([O-])c1 | * (“*” for % values of less than or equal to 40)
69 | O=C(Nc1ccc(I)c(Cl)c1)c1ccc(Cl)[n+]([O-])c1 | * (“*” for % values of less than or equal to 40)
70 | Cc1cc(NC(=O)c2ccc(Cl)[n+]([O-])c2)ccc1Br | * (“*” for % values of less than or equal to 40)
71 | O=C(Nc1cc(C(F)(F)F)cc(C(F)(F)F)c1)c1ccc(Cl)[n+]([O-])c1 | * (“*” for % values of less than or equal to 40)
72 | O=C(Nc1cccc(OC(F)(F)F)c1)c1ccc(Cl)[n+]([O-])c1 | * (“*” for % values of less than or equal to 40)
73 | Cc1cc(F)ccc1NC(=O)c1ccc(Cl)[n+]([O-])c1 | * (“*” for % values of less than or equal to 40)
74 | O=C(Nc1cccc(F)c1)c1ccc(Cl)[n+]([O-])c1 | * (“*” for % values of less than or equal to 40)

— patent US7141590B2, “Pharmaceutical uses and synthesis of nicotinanilide-N-oxides” (UCB SA, priority 2000, dated 2006)
